Test results as given in article doi:10.1101/2021.06.16.448762v1 (biorxiv, 2021).

B1: AtNAD-MEα/β (Arabidopsis thaliana) (protein)
chain 1: PTIVHKQGLDILHDPWFNKGTAFTMTERNRLDLRGLLPPNVMDSEQQIFRFMTDLKRLEEQARDGPSDPNALAKWRILNRLHDRNETMYYKVLINNIEEYAPIVYTPTVGLVCQNYSGLFRRPRGMYFSAEDRGEMMSMVYNWPAEQVDMIVVTDGSRILGLGDLGVHGIGIAVGKLDLYVAAAGINPQRVLPVMIDVGTNNEKLRNDPMYLGLQQRRLEDDDYIDVIDEFMEAVYTRWPHVIVQFEDFQSKWAFKLLQRYRCTYRMFNDDVQGTAGVAIAGLLGAVRAQGRPMIDFPKMKIVVAGAGSAGIGVLNAARKTMARMLGNTETAFDSAQSQFWVVDAQGLITEGRENIDPEAQPFARKTKEMERQGLKEGATLVEVVREVKPDVLLGLSAVGGLFSKEVLEAMKGSTSTRPAIFAMSNPTKNAECTPQDAFSILGENMIFASGSPFKNVEFGNGHVGHCNQGNNMYLFPGIGLGTLLSGAPIVSDGMLQAASECLAAYMSEEEVLEGIIYPPISRIRDITKRIAAAVIKEAIEEDLVEGYREMDAREIQKLDEEGLMEYVENNMWNPEYPTLVYKDD
chain 2: CIVHKRGADILHDPWFNKDTGFPLTERDRLGIRGLLPPRVMTCVQQCDRFIESFRSLENNTKGEPENVVALAKWRMLNRLHDRNETLYYRVLIDNIKDFAPIIYTPTVGLVCQNYSGLYRRPRGMYFSAKDKGEMMSMIYNWPAPQVDMIVITDGSRILGLGDLGVQGIGIPIGKLDMYVAAAGINPQRVLPIMLDVGTNNEKLLQNDLYLGVRQPRLEGEEYLEIIDEFMEAAFTRWPKAVVQFEDFQAKWAFGTLERYRKKFCMFNDDVQGTAGVALAGLLGTVRAQGRPISDFVNQKIVVVGAGSAGLGVTKMAVQAVARMAGISESEATKNFYLIDKDGLVTTERTKLDPGAVLFAKNPAEIREGASIVEVVKKVRPHVLLGLSGVGGIFNEEVLKAMRESDSCKPAIFAMSNPTLNAECTAADAFKHAGGNIVFASGSPFENVELENGKVGHVNQANNMYLFPGIGLGTLLSGARIVTDGMLQAASECLASYMTDEEVQKGILYPSINNIRHITAEVGAAVLRAAVTDDIAEGHGDVGPKDLSHMSKEDTVNYITRNMWFPVYSPLVHEK

Legend:
GgNAD-MEα = assay: NADH formation at […] nm; assay type: biochemical, Gynandropsis gynandra; details: read-out: Km malate; 4 mM NAD, 10 mM MnCl2, MES pH 6.2-6.4
ThNAD-MEα/β2 = assay: NADH formation at […] nm; assay type: biochemical, Tarenaya hassleriana; details: read-out: Km malate; 4 mM NAD, 10 mM MnCl2, MES pH 6.2-6.4
GgNAD-MEβ2 = assay: NADH formation at […] nm; assay type: biochemical, Gynandropsis gynandra; details: read-out: Km malate; no aspartate; 4 mM NAD, 10 mM MnCl2, MES pH 6.2-6.4
ThNAD-MEβ1 = assay: NADH formation at […] nm; assay type: biochemical, Tarenaya hassleriana; details: read-out: Km malate; 4 mM NAD, 10 mM MnCl2, MES pH 6.2-6.4
GgNAD-MEα/β2 = assay: NADH formation at […] nm; assay type: biochemical, Gynandropsis gynandra; details: read-out: Km malate; no aspartate; 4 mM NAD, 10 mM MnCl2, MES pH 6.2-6.4
ThNAD-MEα = assay: NADH formation at […] nm; assay type: biochemical, Tarenaya hassleriana; details: read-out: Km malate; 4 mM NAD, 10 mM MnCl2, MES pH 6.2-6.4
ThNAD-MEα/β1 = assay: NADH formation at […] nm; assay type: biochemical, Tarenaya hassleriana; details: read-out: Km malate; 4 mM NAD, 10 mM MnCl2, MES pH 6.2-6.4
ThNAD-MEβ2 = assay: NADH formation at […] nm; assay type: biochemical, Tarenaya hassleriana; details: read-out: Km malate; 4 mM NAD, 10 mM MnCl2, MES pH 6.2-6.4
purified protein = substrate: O=C(O)C[C@H](O)C(=O)O; assay: purified protein; details: no aspartate; 4 mM NAD, 10 mM MnCl2, MES pH 6.2-6.4; pH 6.0

Molecule | Km (GgNAD-MEα) [mM] | Km (ThNAD-MEα/β2) [mM] | Km (GgNAD-MEβ2) [mM] | Km (ThNAD-MEβ1) [mM] | Km (GgNAD-MEα/β2) [mM] | Km (ThNAD-MEα) [mM] | Km (ThNAD-MEα/β1) [mM] | Km (ThNAD-MEβ2) [mM] | Km (purified protein) [mM] | kcat (purified protein) [s⁻¹]
O=C(O)C[C@H](O)C(=O)O [malate] | 3.1 ± 0.4 | 3.4 ± 1 | 2.6 ± 1 | 9.2 ± 2.3 | 3.5 ± 0.5 | 5.4 ± 1.3 | 6.6 ± 1.6 | 6.8 ± 1.7 |  | 
B1 |  |  |  |  |  |  |  |  | 3.2 ± 0.4 | 30.7 ± 2.0
